Measurements: patent US4199579A, “Carbamates of 2-haloergolines and 2-haloergolenes and process for the preparation thereof” (priority 1975, dated 1980)
Converted amounts (≈) assume the structure as drawn. Like-named read-outs stand apart in the source and are kept apart here.

Experiments:
Myorelaxing activity = assay: Myorelaxing activity; format: in vivo
Text: (§1) Coming now to examining the anti-asthmatic pharmaceutical compositions it has been ascertained that the compound described as D-2-bromo-6-methyl-8beta-(morpholinocarbolynoxymethyl)-ergoline, corresponding to the formula (4) is endowed with quite special [drawing 81] which render it particularly recommendable for the therapy of asthma. The compound of the formula (4) has the empirical formula C21 H26 N3 O3 Br and a mol. wt. of 448.38. It gives, with mineral and organic acid of nontoxic and pharmacologically acceptable nature, a number of salt. These are soluble in water as well as in the physiological solutions. Such are for example the maleate C25 H30 N3 O7 Br, m.p. 213° C.-216° C., or the methanesulfonate C22 H30 N3 O6 BrS, m.p. 265° C.-266° C. and can be prepared according to the conventional methods by treating the compound (4) with the equivalent quantities of the acid in an aqueous medium or in appropriate organic solvents and their mixtures such as the alcohols, the ethers, the lower aliphatic ketones and others, taken individually or in appropriate mixtures with each other as will be detailed in the Examples hereinafter. The pharmacological activity of the compound of formula (4) is unfolded in appropriate assays, carried out on the test animals and is especially conspicuous in the following test runs: […]

Antidepressant activity = assay: Antidepressant activity; format: in vivo
Text: as §1

asthma [1] = assay: Anti-asthmatic activity (Goose, Immunology, 16, 749, 1969); format: in vivo
Text: Coming now to examining the anti-asthmatic pharmaceutical compositions it has been ascertained that the compound described as D-2-bromo-6-methyl-8beta-(morpholinocarbolynoxymethyl)-ergoline, corresponding to the formula (4) is endowed with quite special [drawing 81] which render it particularly recommendable for the therapy of asthma. The compound of the formula (4) has the empirical formula C21 H26 N3 O3 Br and a mol. wt. of 448.38. It gives, with mineral and organic acid of nontoxic and pharmacologically acceptable nature, a number of salt. These are soluble in water as well as in the physiological solutions. Such are for example the maleate C25 H30 N3 O7 Br, m.p. 213° C.-216° C., or the methanesulfonate C22 H30 N3 O6 BrS, m.p. 265° C.-266° C. and can be prepared according to the conventional methods by treating the compound (4) with the equivalent quantities of the acid in an aqueous medium or in appropriate organic solvents and their mixtures such as the alcohols, the ethers, the lower aliphatic ketones and others, taken individually or in appropriate mixtures with each other as will be detailed in the Examples hereinafter. The pharmacological activity of the compound of formula (4) is unfolded in appropriate assays, carried out on the test animals and is especially conspicuous in the following test runs:
Goose, Sodium ED100 5 mg/kg intrav.

Acute toxicity in mice = format: in vivo, mouse; conditions: mouse, in vivo, mouse
Text: |Toxicity LD50 mice orally

[2] = tested on: alpha-adrenergic receptors; assay: Antiadrenalic (antiadrenergic) activity in vitro (a): antagonism of the spasmogenic effect of adrenaline on the seminal vesicle; format: cell-based, guinea pig
Text: More particularly the novel compounds display a vasodilatory activity on the peripheral circulatory system, an hypotensive activity and a spasmolytic effect on the gastrointestinal smooth muscles or a blocking activity towards the alpha-adrenergic receptors, both in "vitro" and in "vivo".
(a) J. Brugger, Helv. Physiol. Pharmacol. Acta 3, 117 (1945)
The product is antagonizing the spasmogenic effect of the adrenaline on the seminal vesicle of guinea pig at concentrations of between 0.1 and 10 pg/ml, as well as the vaso- constricting effect of the noradrenaline on the isolated and perfused caudal arteria of rat, at dosages of between 1 and 10 μg total. Furthermore it antagonizes the contracturing effect of adrenaline and noradrenaline on the "vas deferens" of guinea pig and rat, at concentrations of 0.1 to 10 ng/ml.

adrenergic activity = assay: Adrenergic activity of compound (4) in vitro; format: cell-based
Text: All of these activities of an accessorial nature which unfold themselves at dosages which are considerably higher than those which cause the antiasthmatic effect, should be regarded as favorable factors in the sense that they improve the pharmacological pattern of the product, so that a possible therapeutic use of the product for patients suffering from asthma, […], can be forecast.

[3] = tested on: isolated ileum of guinea pig; assay: AntiBaCl2 activity in vitro (c): antagonism of the spasmogenic action of barium chloride on the isolated ileum; format: cell-based; conditions: Cavia porcellus, read-out: AntiBaCl2 (c) vitro EC50
Protocol: (c) Magnus, Pflugers Arch.Ges.Physiol. 102, 123 (1904)
The substance antagonizes the spasmogenic action of the barium chloride on the isolated ileum of guinea pig at dosages of between 1 and 5 μg/ml. […] On the isolated caudal arteria of rat, the compound II inhibits the vaso-constricting effect as caused by the perfusion with hyperpotassium Ringer's solution.

[4] = tested on: alpha-adrenergic receptors; assay: Antiadrenalic activity in vivo (b): protection of rats from the lethal effect of adrenaline; set-up: species or system rat; conditions: e.v.; Table 2
asthma [5] = conditions: pharmacological aspect; cited from earlier work

| SMILES | ED100 (Myorelaxing activity; route not given) [mg/kg] | myorelaxing activity in words (Myorelaxing activity; versus phenobarbital) | ED100 (Antidepressant activity; po, orally) [mg/kg] | antidepressant activity in words (Antidepressant activity; versus imipramine) | dosage level of anti-asthmatic action compared with sodium chromoglycate (asthma [1]; by the oral route) | activity against asthmatic seizures in words (asthma [1]; in vivo) | ED100 (asthma [1]; po, orally) [mg/kg] | LD50 (Acute toxicity in mice; iv, e.v., Table 2, read-out: DL50 e.v. in the mouse) [mg/kg] | LD50 (Acute toxicity in mice; iv, mice, intrav., compound (4), read-out: Toxicity LD50 mice intrav.) [mg/kg] | LD50 (Acute toxicity in mice; po, mice, orally, compound (4), read-out: Toxicity LD50 mice orally) [mg/kg] | selectivity ratio (Acute toxicity in mice; margin of safety, read-out: multiple of the therapeutic dosage beyond which toxic effects become apparent) | Antiadrenalic activity (a) vitro EC50 [2] [ng/mL] | adrenergic activity in vitro (adrenergic activity) | EC50 [3] [µg/mL] | Antiadrenalic activity (b) vivo ED50 [4] [µg/kg] | ED100 (asthma [1]; iv, intrav.) [mg/kg] | route by which the anti-asthmatic activity is manifested (asthma [5]) |
| --- | --- | --- | --- | --- | --- | --- | --- | --- | --- | --- | --- | --- | --- | --- | --- | --- | --- |
| CN1C[C@H](COC(=O)N2CCOCC2)C[C@@H]2c3cccc4[nH]c(Br)c(c34)C[C@H]21 [Example 16, D-2-bromo-6-methyl-8beta-(morpholinocarbonyloxymethyl)-ergoline] | 100 | remarkable myorelaxing activity which is comparable to that of phenobarbital | 5 | considerable antidepressant activity which can be compared to that of imipramine | considerably lower dosage levels | both selectivity and a powerful activity against asthmatic seizures | 0.25 | 20.5 | 18 to 22 | 180 | > 1000 | 5.8 | powerful adrenergic activity | 7.5 (≈ 16.7 µM) | 41.9 | – | – |
| O=C(O)c1cc(=O)c2c(OCC(O)COc3cccc4oc(C(=O)O)cc(=O)c34)cccc2o1 [Sodium chromoglycate, reference compound] | – | – | – | – | – | – | – | – | – | – | – | – | – | – | – | 5 | manifested only by the parentheral administration (intravenously), and, in man by inhalation of the dispersed powder |
